Measurements: PubChem BioAssay (NCI)
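Assay format: 96-well plates, 48-hour exposure. GI50 is the concentration that inhibits growth by half. TGI denotes the concentration required for complete inhibition of growth.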

What was measured:
Experiment in all cases: NCI-60 cell line screen, 48 h
SF-268 CNS = test system: SF-268 CNS
ACHN renal = test system: ACHN renal
KM12 colon = test system: KM12 colon
HL-60(TB) leukemia = test system: HL-60(TB) leukemia
K-562 leukemia = test system: K-562 leukemia
MCF7 breast = test system: MCF7 breast
MDA-MB-468 breast = test system: MDA-MB-468 breast
SK-MEL-28 melanoma = test system: SK-MEL-28 melanoma
PC-3 prostate = test system: PC-3 prostate
T-47D breast = test system: T-47D breast
UACC-62 melanoma = test system: UACC-62 melanoma
OVCAR-3 ovarian = test system: OVCAR-3 ovarian
COLO 205 colon = test system: COLO 205 colon
U251 CNS = test system: U251 CNS
NCI-H460 lung = test system: NCI-H460 lung
TK-10 renal = test system: TK-10 renal
CCRF-CEM leukemia = test system: CCRF-CEM leukemia
IGROV1 ovarian = test system: IGROV1 ovarian
OVCAR-4 ovarian = test system: OVCAR-4 ovarian
SF-539 CNS = test system: SF-539 CNS
A498 renal = test system: A498 renal
CAKI-1 renal = test system: CAKI-1 renal
RPMI-8226 leukemia = test system: RPMI-8226 leukemia
HCT-116 colon = test system: HCT-116 colon
OVCAR-8 ovarian = test system: OVCAR-8 ovarian
NCI-H522 lung = test system: NCI-H522 lung
HS 578T breast = test system: HS 578T breast
MDA-MB-435 = test system: MDA-MB-435
M14 melanoma = test system: M14 melanoma
UACC-257 melanoma = test system: UACC-257 melanoma
SW-620 colon = test system: SW-620 colon
HT29 colon = test system: HT29 colon
EKVX NSCLC = test system: EKVX NSCLC
NCI-H226 lung = test system: NCI-H226 lung
RXF 393 renal = test system: RXF 393 renal
SNB-19 CNS = test system: SNB-19 CNS
HCC-2998 colon = test system: HCC-2998 colon
SN12C renal = test system: SN12C renal
LOX IMVI melanoma = test system: LOX IMVI melanoma
MOLT-4 leukemia = test system: MOLT-4 leukemia
HCT-15 colon = test system: HCT-15 colon
SK-OV-3 ovarian = test system: SK-OV-3 ovarian
UO-31 renal = test system: UO-31 renal
MALME-3M melanoma = test system: MALME-3M melanoma
SK-MEL-5 melanoma = test system: SK-MEL-5 melanoma
DU-145 prostate = test system: DU-145 prostate
MDA-MB-231 breast = test system: MDA-MB-231 breast
SF-295 CNS = test system: SF-295 CNS
SR leukemia = test system: SR leukemia
OVCAR-5 ovarian = test system: OVCAR-5 ovarian
HOP-92 NSCLC = test system: HOP-92 NSCLC
NCI-H23 lung = test system: NCI-H23 lung
786-0 renal = test system: 786-0 renal
HOP-62 NSCLC = test system: HOP-62 NSCLC
A549 NSCLC = test system: A549 NSCLC
BT-549 breast = test system: BT-549 breast
SNB-75 CNS = test system: SNB-75 CNS

SMILES: COc1ccc(C(SCCNCc2cc(N(C)C)ccn2)(c2ccccc2)c2ccccc2)cc1
- GI50 (SF-268 CNS): 4.02 µM
- TGI (SF-268 CNS): 20.4 µM
- GI50 (ACHN renal): 2.48 µM
- TGI (ACHN renal): 18.5 µM
- GI50 (KM12 colon): 3.66 µM
- TGI (KM12 colon): 16 µM
- GI50 (HL-60(TB) leukemia): 2.11 µM
- TGI (HL-60(TB) leukemia): 5.28 µM
- GI50 (K-562 leukemia): 0.697 µM
- TGI (K-562 leukemia): 13.6 µM
- GI50 (MCF7 breast): 0.322 µM
- TGI (MCF7 breast): 11 µM
- GI50 (MDA-MB-468 breast): 0.544 µM
- TGI (MDA-MB-468 breast): 2.9 µM
- GI50 (SK-MEL-28 melanoma): 5.6 µM
- TGI (SK-MEL-28 melanoma): 18.7 µM
- GI50 (PC-3 prostate): 1.67 µM
- TGI (PC-3 prostate): 15 µM
- GI50 (T-47D breast): 4.7 µM
- TGI (T-47D breast): 21.9 µM
- GI50 (UACC-62 melanoma): 4.22 µM
- TGI (UACC-62 melanoma): 16.6 µM
- GI50 (OVCAR-3 ovarian): 2.53 µM
- TGI (OVCAR-3 ovarian): 12.4 µM
- GI50 (COLO 205 colon): 1.09 µM
- TGI (COLO 205 colon): 2.97 µM
- GI50 (U251 CNS): 0.592 µM
- TGI (U251 CNS): 13.6 µM
- GI50 (NCI-H460 lung): 2.93 µM
- TGI (NCI-H460 lung): 12.5 µM
- GI50 (TK-10 renal): 9.54 µM
- TGI (TK-10 renal): 21.7 µM
- GI50 (CCRF-CEM leukemia): 0.468 µM
- TGI (CCRF-CEM leukemia): 15.4 µM
- GI50 (IGROV1 ovarian): 3.43 µM
- TGI (IGROV1 ovarian): 17.1 µM
- GI50 (OVCAR-4 ovarian): 9.25 µM
- TGI (OVCAR-4 ovarian): 22.7 µM
- GI50 (SF-539 CNS): 1.61 µM
- TGI (SF-539 CNS): 3.83 µM
- GI50 (A498 renal): 15.6 µM
- TGI (A498 renal): 30.1 µM
- GI50 (CAKI-1 renal): 3.54 µM
- TGI (CAKI-1 renal): 17.6 µM
- GI50 (RPMI-8226 leukemia): 0.954 µM
- TGI (RPMI-8226 leukemia): 10 µM
- GI50 (HCT-116 colon): 0.324 µM
- TGI (HCT-116 colon): 10.5 µM
- GI50 (OVCAR-8 ovarian): 1.87 µM
- TGI (OVCAR-8 ovarian): 18.1 µM
- GI50 (NCI-H522 lung): 0.707 µM
- TGI (NCI-H522 lung): 5.77 µM
- GI50 (HS 578T breast): 1.37 µM
- TGI (HS 578T breast): 9.32 µM
- GI50 (MDA-MB-435): 0.214 µM
- TGI (MDA-MB-435): 0.475 µM
- GI50 (M14 melanoma): 0.447 µM
- TGI (M14 melanoma): 2.48 µM
- GI50 (UACC-257 melanoma): 5.71 µM
- TGI (UACC-257 melanoma): 19.8 µM
- GI50 (SW-620 colon): 0.916 µM
- TGI (SW-620 colon): 16.8 µM
- GI50 (HT29 colon): 2.25 µM
- TGI (HT29 colon): 5.66 µM
- GI50 (EKVX NSCLC): 1.5 µM
- TGI (EKVX NSCLC): 17.1 µM
- GI50 (NCI-H226 lung): 4.45 µM
- TGI (NCI-H226 lung): 17.8 µM
- GI50 (RXF 393 renal): 2.61 µM
- TGI (RXF 393 renal): 11.5 µM
- GI50 (SNB-19 CNS): 3.48 µM
- TGI (SNB-19 CNS): 15.3 µM
- GI50 (HCC-2998 colon): 0.7 µM
- TGI (HCC-2998 colon): 2.14 µM
- GI50 (SN12C renal): 1.49 µM
- TGI (SN12C renal): 13.7 µM
- GI50 (LOX IMVI melanoma): 2.04 µM
- TGI (LOX IMVI melanoma): 11.4 µM
- GI50 (MOLT-4 leukemia): 3.47 µM
- TGI (MOLT-4 leukemia): 13.6 µM
- GI50 (HCT-15 colon): 0.432 µM
- TGI (HCT-15 colon): 11.6 µM
- GI50 (SK-OV-3 ovarian): 3.57 µM
- TGI (SK-OV-3 ovarian): 15.9 µM
- GI50 (UO-31 renal): 3.78 µM
- TGI (UO-31 renal): 17.5 µM
- GI50 (MALME-3M melanoma): 3.36 µM
- TGI (MALME-3M melanoma): 15.8 µM
- GI50 (SK-MEL-5 melanoma): 1.08 µM
- TGI (SK-MEL-5 melanoma): 3.82 µM
- GI50 (DU-145 prostate): 3.5 µM
- TGI (DU-145 prostate): 12.8 µM
- GI50 (MDA-MB-231 breast): 1.48 µM
- TGI (MDA-MB-231 breast): 4.8 µM
- GI50 (SF-295 CNS): 0.618 µM
- TGI (SF-295 CNS): 11.5 µM
- GI50 (SR leukemia): 0.566 µM
- TGI (SR leukemia): > 100 µM
- GI50 (OVCAR-5 ovarian): 3.07 µM
- TGI (OVCAR-5 ovarian): 11.9 µM
- GI50 (HOP-92 NSCLC): 2.16 µM
- TGI (HOP-92 NSCLC): 11 µM
- GI50 (NCI-H23 lung): 3.12 µM
- TGI (NCI-H23 lung): 13.1 µM
- GI50 (786-0 renal): 1.4 µM
- TGI (786-0 renal): 7.55 µM
- GI50 (HOP-62 NSCLC): 4.34 µM
- TGI (HOP-62 NSCLC): 19.8 µM
- GI50 (A549 NSCLC): 3.79 µM
- TGI (A549 NSCLC): 20 µM
- GI50 (BT-549 breast): 1.92 µM
- TGI (BT-549 breast): 6.03 µM
- GI50 (SNB-75 CNS): 2.86 µM
- TGI (SNB-75 CNS): 13.6 µM
